The record followed here is PMC11671014 (PLOS Pathogens, 2024).

In general, IC50 refers to the concentration that inhibits the measured activity by half. The term IC90 denotes the concentration at which the effect reaches the 90% level.

Read-outs that look alike come from different tables or passages of the source. A value given as a limit tells only on which side of the number the result lay.

Data set [1] relates to Pf3D7-pfs16-CBG99 gametocytes, immature (stage II/III) and mature (stage V). The experiment in a line: Gametocyte killing assay (luciferase). The format is cell-based. The conditions noted are these: Plasmodium falciparum, 48 h. On the procedure:
Gametocytogenesis was induced on a tightly synchronised (>97% rings) asexual parasite culture (Pf3D7-pfs16-CBG99 (kind gift from Pietro Alano), 0.5% parasitemia and 6% hematocrit) with a combination of nutrient starvation and a decrease in hematocrit, as previously described. For immature gametocytes (>90% stage II/III), cultures were exposed to 50 mM N-acetyl glucosamine (NAG) on days 1–4 to eliminate residual asexual parasites and harvested at days 5–6. For mature (>95% stage V) gametocytes, NAG treatment occurred from days 3–7 and harvest at day 13. Stage II/III and V gametocyte cultures (2 % gametocytaemia 1.5 % haematocrit, 150 μL/well) were exposed to compounds and incubated at 37°C for 48 h under hypoxic conditions, after which luciferase activity was determined with a non-lysing D-luciferin substrate (1mM in 0.1M citrate buffer, pH 5.5, 100 μL) and bioluminescence was detected with a 2 s integration time with a GloMax-Multi Detection System with Instinct software.

The subject of data set [2] is P. falciparum liver stage schizont (NF135). The experiment in a line: Liver stage schizont assay in primary human hepatocytes (NF135). The conditions noted are these: Plasmodium falciparum, Hepatocyte, 96 h, four days. Format: cell-based. How it is done: (§1) Activity against liver stage parasites was performed using a modification of published procedures. Briefly, cryopreserved human primary hepatocytes (NF175: H1500.H15B+ Lot No. HC0-6, TebuBio or NF135: F00995-P Lot No. IRZ, BioIVT) were thawed and seeded at 18,000 cells per well in collagen-coated 384-well microtiter plates in medium containing 10% heat inactivated fetal bovine serum (hiFBS). Cells were cultured at 37°C in 5% CO2. For NF175, medium was replaced by fresh medium containing 10% hiFBS, 5 h post plating. For NF135, medium was replaced by medium containing 0.2% BSA, 24 h post plating. 48 h post plating, salivary glands from Plasmodium-NF175 or NF135-infected Anopheles stephensi mosquitoes were dissected, added to the hepatocytes (10,000 per well/ NF175; or 12,500 per well/ NF135) and allowed to infect for 3 hours. Sporozoites were then aspirated, and compounds diluted in medium containing 10% hiFBS or 0.2% BSA, were added to the hepatocytes. Medium containing 10% hiFBS or 0.2% BSA and compounds was refreshed daily for four days. Hepatocytes were fixed with ice-cold methanol and samples were blocked with 10% hiFBS in PBS. Schizonts were stained with rabbit anti-HSP70 in 10% hiFBS for 1–2 h followed by incubation with a mixture of secondary goat anti-rabbit AlexaFluor 594 antibody and 4′,6-diamidine-2′-phenylindole dihydrochloride (DAPI) in 10% hiFBS for 30 min. Samples were washed with PBS containing 0.05% Tween 20 between different steps. Cells were imaged on a PicoExpress high content imager, and images were analysed automatically using CellReporterXpress software. Data were analysed by logistic regression using a four-parameter (Hill equation) model and a least-squares method to find the best fit.

A further data set addresses T1, HsTyrRS (Homo sapiens, UniProt P54577).
T1 sequence (P54577 1-528): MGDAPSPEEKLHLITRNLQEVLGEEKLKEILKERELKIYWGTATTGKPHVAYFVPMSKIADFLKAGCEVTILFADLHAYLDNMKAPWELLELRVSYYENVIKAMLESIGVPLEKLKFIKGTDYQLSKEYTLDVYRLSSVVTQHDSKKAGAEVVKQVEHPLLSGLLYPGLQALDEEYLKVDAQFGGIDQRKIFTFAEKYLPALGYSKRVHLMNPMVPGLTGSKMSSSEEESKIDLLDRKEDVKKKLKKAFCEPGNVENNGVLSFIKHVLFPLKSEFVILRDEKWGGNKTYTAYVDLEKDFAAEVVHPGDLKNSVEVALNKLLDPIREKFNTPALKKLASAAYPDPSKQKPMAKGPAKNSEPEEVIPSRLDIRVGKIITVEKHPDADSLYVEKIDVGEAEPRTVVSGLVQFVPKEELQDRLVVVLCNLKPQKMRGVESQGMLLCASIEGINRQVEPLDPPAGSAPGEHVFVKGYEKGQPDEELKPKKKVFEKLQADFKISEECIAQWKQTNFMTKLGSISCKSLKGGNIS
The experiment in a line: Differential scanning fluorimetry (DSF) of HsTyrRS. The format is binding. The conditions noted are these: for thermal stabilisation of recombinant HsTyrRS (in words): with all substrates; for HsTyrRS Tm: with sulfamate, tyrosine and tRNA, apo 49.0 ± 0.2. On the procedure:
The effect on ML471 and analogues on the thermal stability of TyrRS enzymes was assayed as previously described. […] SYPRO Orange (Sigma-Aldrich; 5,000X concentrate in DMSO) was added to the reaction mixture at a final concentration of 5X. 25 μL of the sample was added into each well of a 96-well qPCR plate (Applied Biosystems). The plate was sealed and analysed using StepOnePlus Real-Time PCR system (Applied Biosystems). The samples were heated from 20°C to 90°C with a 1% continuous gradient. The thermal unfolding curve was plotted as the first derivative curve of the raw fluorescence values. The melting temperature (Tm), defined as the peak of the first derivative curve, was used to assess the thermal stability of protein-ligand complexes.
(DSF heats the sample and reads unfolding from a dye or from intrinsic fluorescence.)

Another data set has as its system Primary hepatocytes. The experiment in a line: Toxicity to primary hepatocyte host cells in the liver stage assay. The format is cell-based, human. The conditions noted are these: for IC50: Homo sapiens, Hepatocyte. On the procedure: as §1
The test system of another data set is Dd2-B2 parasites. The experiment in a line: Minimum inoculum of resistance (MIR) selection. The format is cell-based, Plasmodium falciparum. The conditions noted are these: for IC50: DD2, read-out: in-house mean IC50; for IC50 fold shift (clones): 3 x IC50. On the procedure: MIR studies were conducted for ML901 and ML471 using a modified “Gate keeper assay” [34]. […] For ML901, the parasites (starting parasite inoculums of 1x10^7 or 1x10^8 in triplicate) were subjected to pressure at 3 x IC50, with recrudescence on days 12–14. […] The different pressure regimens reflect the standard protocols in the Fidock lab used at the times of analysis. Wells were monitored daily by smear during the first seven days to ensure parasite clearance, during which media was changed daily. Thereafter, cultures were screened three times weekly by flow cytometry and smearing, and the selection maintained a consistent drug pressure over 60 days. […] Whole-genome sequencing analysis identified CNVs in chromosome 8 segments, always containing the PfTyrRS locus, consistent with our earlier evidence of this as the target of ML901 [16]. Single nucleotide polymorphism (SNP) filtering was lowered to 0.5 allelic balance (AB) but yielded no point mutations in the core genome.

[3] abbreviates: read-out: Early stage gametocytes IC50.
Setting [4] is: read-out: Mature stage gametocytes IC50.
Where [5] appears, read: host cells of the NF135 experiment.
Where [6] appears, read: host cells of the NF175 experiment.

For `CC(C)c1nn([C@@H]2O[C@H](COS(N)(=O)=O)[C@@H](O)[C@H]2O)c2ncnc(N)c12` [ML471, ((2R,3S,4R,5R)-5-(4-amino-3-isopropyl-1H-pyrazolo[3,4-d]pyrimidin-1-yl)-3,4-dihydroxytetrahydrofuran-2-yl)methyl sulfamate], the IC50 was 112 nM in data set [1] (setting [3]); 392 nM in data set [1] (setting [4]); 5.5 nM in data set [2]; greater than 100 nM with Primary hepatocytes (setting [5]); greater than 10000 nM in the data set on Primary hepatocytes (setting [6]); 1.45 nM with Dd2-B2 parasites (Plasmodium falciparum). The ΔTm at 200 µM at HsTyrRS (200 μM sulfamate, ATP, tyrosine, yeast tRNA, 37°C 4 h, read-out: HsTyrRS binding (DSF) Delta Tm) came out at 0.06 ± 0.04 °C. Also, on HsTyrRS, the “thermal stabilisation of recombinant HsTyrRS (in words)” value is reported as “not stabilised”. Moreover, at HsTyrRS (ATP), the “HsTyrRS Tm” value is 49.0 ± 0.2 °C. For the same compound, the “toxicity against the primary hepatocyte host cells (in words)” value with Primary hepatocytes was “no toxicity”. Also, the IC90 in the data set on Dd2-B2 parasites (Plasmodium falciparum, DD2, read-out: mean IC90) came out at 1.99 nM. Also, the IC50 shift in the data set with Dd2-B2 parasites (selection with 2x10^5 parasites, 10 x IC50) is 9-16 xIC50.
Regarding `Nc1ncnc2c1c(OC(F)F)nn2[C@@H]1O[C@H](COS(N)(=O)=O)[C@@H](O)[C@H]1O` [ML901], the half-inhibitory concentration (IC50) in data set [1] (setting [3]) is 310 ± 60 nM; in data set [1] (setting [4]) it was 1660 ± 140 nM; in data set [2] it was 2.9 ± 0.9 nM; with Primary hepatocytes (setting [5]) it was greater than 100 nM; in the data set with Primary hepatocytes (setting [6]), greater than 10000 nM; in the data set on Dd2-B2 parasites (Plasmodium falciparum) it was 2.6 ± 0.05 nM. Further, the “HsTyrRS binding (DSF) Delta Tm” value at HsTyrRS (200 μM sulfamate, ATP, tyrosine, yeast tRNA, 37°C 4 h) came to 0.4 ± 0.1 °C. Besides, the “thermal stabilisation of recombinant HsTyrRS (in words)” value at HsTyrRS is on record as “not stabilised”. Also, the “HsTyrRS Tm” value on HsTyrRS (ATP) was determined as 49.4 ± 0.1 °C. In addition, the “IC50 fold shift (clones)” value in the data set with Dd2-B2 parasites (selection with 10^7 parasites) is on record as 2-3 x IC50; in the data set with Dd2-B2 parasites (selection with 10^8 parasites), 3-6 x IC50.
